Assay results as given in PMC5376326, “Inhibition of ANO1 by luteolin and its cytotoxicity in human prostate cancer PC-3 cells” (PLoS ONE, 2017).

system: ANO1; test: not given; conditions: read-out: IC50, ANO1 inhibition; cited from earlier work

Which IC50 does the source give for COc1cc(Nc2ccc([N+](=O)[O-])cc2C(=O)O)cc2ccccc12 [MONNA] here?
Its IC50 is ~1 µM.

For CCc1c(C)nc(SCC(=O)Nc2nc(-c3ccc(OC)cc3)cs2)[nH]c1=O [T16Ainh-A01], which IC50 is on record?
The IC50 was ~1 µM.

For COC1=C(OC)C(=O)C(CCCCCCCCCCO)=C(C)C1=O [idebenone], which IC50 is on record?
Its IC50 is ~9 µM.

For tannic acid, which IC50 is on record?
The IC50 was ~6 µM.

biological target: T1, human ANO1 (abc) (Homo sapiens, UniProt Q5XXA6, DEL476-501); test: YFP fluorescence quenching assay (iodide influx) in FRT cells expressing human ANO1; assay type: cell-based; conditions: FRT cells expressing ANO1 and YFP; ATP activation; mean ± S.E., n = 3; read-out: IC50, ANO1 inhibition (YFP fluorescence quenching)
T1 sequence (Q5XXA6 with tags, fused parts or gaps isoform Q5XXA6-5 DEL539-564): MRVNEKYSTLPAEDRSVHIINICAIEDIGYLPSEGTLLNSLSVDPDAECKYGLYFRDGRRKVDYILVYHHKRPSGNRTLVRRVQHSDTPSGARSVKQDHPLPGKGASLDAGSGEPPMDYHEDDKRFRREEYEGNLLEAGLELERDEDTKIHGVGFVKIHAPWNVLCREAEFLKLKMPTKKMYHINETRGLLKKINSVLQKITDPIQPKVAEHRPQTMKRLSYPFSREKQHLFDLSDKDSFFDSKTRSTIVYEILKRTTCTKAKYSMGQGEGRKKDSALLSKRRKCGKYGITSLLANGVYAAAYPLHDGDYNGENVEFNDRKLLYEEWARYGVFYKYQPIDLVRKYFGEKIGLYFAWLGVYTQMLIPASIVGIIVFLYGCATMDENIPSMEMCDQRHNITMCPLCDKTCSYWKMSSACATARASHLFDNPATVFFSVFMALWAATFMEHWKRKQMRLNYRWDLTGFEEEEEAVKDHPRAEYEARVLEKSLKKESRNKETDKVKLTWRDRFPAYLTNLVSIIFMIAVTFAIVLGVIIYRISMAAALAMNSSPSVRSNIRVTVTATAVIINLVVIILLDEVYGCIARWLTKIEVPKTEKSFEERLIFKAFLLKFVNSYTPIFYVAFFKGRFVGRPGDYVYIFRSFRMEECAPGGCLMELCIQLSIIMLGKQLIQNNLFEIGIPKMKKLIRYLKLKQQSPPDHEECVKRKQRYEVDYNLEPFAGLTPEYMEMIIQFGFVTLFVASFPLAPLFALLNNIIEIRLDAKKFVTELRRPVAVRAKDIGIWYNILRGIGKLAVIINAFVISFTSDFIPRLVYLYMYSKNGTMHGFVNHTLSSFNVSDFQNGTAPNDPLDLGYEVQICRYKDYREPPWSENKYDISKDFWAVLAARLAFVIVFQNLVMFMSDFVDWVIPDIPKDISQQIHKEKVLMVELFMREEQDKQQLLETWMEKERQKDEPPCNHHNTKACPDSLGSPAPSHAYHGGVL
Description: Fisher rat thyroid (FRT) cells were stably transfected with human ANO1 (abc) or mouse ANO2 and the halide sensor YFP as described in previous study. FRT cells were cultured in Coon`s modified F12 medium with 10% FBS, 2 mM L-glutamine, 100 units/ml penicillin and 100 μg/ml streptomycin at 37°C and 5% CO2. PC-3 cells were grown in RPMI 1640 medium supplemented with 10% FBS, 100 units/ml penicillin and 100 μg/ml streptomycin at 37°C and 5% CO2. There were populations of PC-3 cells with high and low expression of ANO1. To separate high and low levels of ANO1 expressing PC-3 cells, cells were stably transfected with the halide sensor YFP-H148Q/I152L/F46L and then the cells were plated on 96 well plates at 1 cell per well. After two weeks of incubation, high and low levels of ANO1 expressing PC-3 cells were separated by YFP quenching assay. ANO1 was activated by 100 μM ATP.
ANO1 and YFP expressing FRT cells were plated in 96-well black-walled microplates (Corning Inc., Corning, NY) at a density of 20,000 cells per well. Assays were done using FLUOstar Omega microplate reader (BMG Labtech, Ortenberg, Germany) and MARS Data Analysis Software (BMG Labtech) as described in our previous study. Briefly, each well of 96-well plate was washed 3 times in PBS (200 μL/wash) and test compounds were added to each well at 25 μM final concentration. After 10 minutes incubation at 37°C, 96-well plates were transferred to the plate reader for fluorescence assay. Each well was assayed individually for ANO1-mediated I^- influx by monitoring YFP fluorescence continuously (400 ms per point) for 2 s (baseline), then 140 mM I^- solution containing 200 μM ATP was added at 2 s and then YFP fluorescence was recorded for 6 s. Initial iodide influx rate was determined from the initial slope of fluorescence decrease, by nonlinear regression, following infusion of iodide with ATP.

For O=c1cc(-c2ccc(O)cc2)oc2cc(O)cc(O)c12 [Apigenin], which IC50 is on record?
The IC50 was 15.79 ± 0.03 µM.

With O=c1cc(-c2ccccc2)oc2cc(O)c(O)c(O)c12 [Baicalein] as the compound, how does the IC50 read?
Its IC50 is 49.6 ± 0.05 µM.

Which IC50 does the source give for O=c1cc(-c2ccccc2)oc2cc(O)cc(O)c12 [Chrysin] here?
Its IC50 is 15.15 ± 0.1 µM.

With O=c1c(O)c(-c2ccccc2)oc2cc(O)cc(O)c12 [Galangin] as the compound, how does the IC50 read?
The IC50 was 9.66 ± 0.01 µM.
